Patent publication US20210261642A1, “SOLUBILITY OF GLP-1 PEPTIDE” (Novo Nordisk A/S, priority 2017, published 2021)

Assay: Assay (I): Determination of Solubility (96-well plate, pH 3.0-11.0, organic solvent 0-70% w/w, UV absorption at 280 nm)
Assay type: physicochemical
Settings: Method 1
Procedure: Assay (I): Determination of Solubility
96-Well Plate Preparation
96-well plates containing target peptide in a solid form were prepared in one of two ways:
Method 1 (evaporation): Addition of 100 μl stock solution of said peptide at a concentration of 4-6 mg/ml to each well of a 96-well half area plate (150 μl well size). Subsequently the solvent was evaporated by applying a vacuum until the solvent was completely removed.
Method 2 (precipitation): Addition of a certain volume of a stock solution of said peptide containing to each well of a 96-well half area plate followed by the addition of a certain volume of concentrated phosphoric acid to obtain a pH of 4.6 followed by addition of a certain volume of ethanol resulting in a final ethanol concentration of 20% v/v. Subsequently the plate was stored at 4° C. for 1 h and then centrifuged at 4,000 rpm for 20 min. Finally the supernatant was removed. The concentration of the stock solution was chosen in a way that the final amount of peptide after supernatant removal was >0.4 mg per well.
In both cases the stock solution was prepared by adding de-ionized water to a certain amount of powder of said peptide followed by a stepwise addition of small amounts of a concentrated sodium hydroxide solution until said peptide was completely in solution.
To determine solubility of a target peptide at different pH and organic solvent concentrations, two different buffer systems were used in independent experiments to cover the whole range from pH 3.0 to pH 11.0. Buffer system 1 covers pH 3.0-7.5 and buffer system 2 covers pH 7.5-11.0. For each buffer system 96 different solvent compositions were premixed in the following way: • 1. A low pH buffer (adjusted to either pH 3.0 or pH 7.5) and a high pH buffer (adjusted to either pH 7.5 or pH 11.0) were mixed at 8 different ratios to obtain values between pH 3.0 and pH 7.5 or pH 7.5 and pH 11.0, respectively. The total volume after mixing was 300 μl. • 2. 12 different amounts of organic solvent were then added to these buffers to obtain organic solvent (e.g. ethanol) concentrations between 0 and 70% w/w. • 3. Water was then added to obtain a total weight of 1.0 g of solvent in each well.
After preparing the 96 different solvent systems, 100 μl of each system was transferred to the 96-well plate containing the solid form of the target peptide (prepared as described in the section “96-well plate preparation”). The plate was then stored at a given temperature (between 5° C. and 70° C.) for a given time on a rotating shaker set to 400 rpm. At regular time intervals the plate was centrifuged (4,000 rpm for 10 min) and a 10 μl sample was taken from each well. The samples were then analysed by UV absorption at 280 nm for peptide quantification. Peptide concentration results are given as UV absorption at 280 nm of the sample subtracted UV absorption at 280 nm of a well comprising 10 μl water.
The buffers used were as follows: • Buffer system 1 (for the pH range from pH 3.0-7.5)
• Buffer system 2 (for the pH ranae from pH 7.5-11.0)
Solubility of liraglutide was determined using Assay (I) described herein. Liraglutide was prepared using Method 1 (evaporation) or Method 2 (precipitation) as described in subsection “96-well plate preparation”.

CCCCCCCCCCCCCCCC(=O)N[C@@H](CCC(=O)NCCCC[C@H](NC(=O)[C@H](C)NC(=O)[C@H](C)NC(=O)[C@H](CCC(N)=O)NC(=O)CNC(=O)[C@H](CCC(=O)O)NC(=O)[C@H](CC(C)C)NC(=O)[C@H](Cc1ccc(O)cc1)NC(=O)[C@H](CO)NC(=O)[C@H](CO)NC(=O)[C@@H](NC(=O)[C@H](CC(=O)O)NC(=O)[C@H](CO)NC(=O)[C@@H](NC(=O)[C@H](Cc1ccccc1)NC(=O)[C@@H](NC(=O)CNC(=O)[C@H](CCC(=O)O)NC(=O)[C@H](C)NC(=O)[C@@H](N)Cc1cnc[nH]1)[C@@H](C)O)[C@@H](C)O)C(C)C)C(=O)N[C@@H](CCC(=O)O)C(=O)N[C@@H](Cc1ccccc1)C(=O)N[C@H](C(=O)N[C@@H](C)C(=O)N[C@@H](Cc1c[nH]c2ccccc12)C(=O)N[C@@H](CC(C)C)C(=O)N[C@H](C(=O)N[C@@H](CCCNC(=N)N)C(=O)NCC(=O)N[C@@H](CCCNC(=N)N)C(=O)NCC(=O)O)C(C)C)[C@@H](C)CC)C(=O)O [liraglutide, Arg34,Lys26-(N-epsilon-(gamma-L-glutamyl(N-alfa-hexadecanoyl)))-GLP-1(7-37)]
2.9 mg/mL: Peptide concentration after 180 min (MeCN 0.0% w/w, pH 8.5, 5° C.) | Peptide concentration after 180 min (MeCN 0.0% w/w, pH 10.5, 5° C.)
0.4 mg/mL: Peptide concentration after 5 min (MeCN 0.0% w/w, pH 6.9, 5° C.) | Peptide concentration after 5 min (MeCN 0.0% w/w, pH 9.5, 5° C.) | Peptide concentration after 5 min (MeCN 0.0% w/w, pH 10.0, 5° C.)
2.8 mg/mL: Peptide concentration after 180 min (MeCN 0.0% w/w, pH 9.0, 5° C.)
2.1 mg/mL: Peptide concentration after 180 min (MeCN 0.0% w/w, pH 8.0, 5° C.)
0.3 mg/mL: Peptide concentration after 5 min (MeCN 0.0% w/w, pH 8.5, 5° C.) | Peptide concentration after 5 min (MeCN 0.0% w/w, pH 9.0, 5° C.) | Peptide concentration after 24 h (MeCN 6.4% w/w, pH 3.0, 5° C.)
0.2 mg/mL: Peptide concentration after 5 min (MeCN 0.0% w/w, pH 4.9, 5° C.) | Peptide concentration after 5 min (MeCN 0.0% w/w, pH 11.0, 5° C.) | Peptide concentration after 180 min (MeCN 6.4% w/w, pH 3.0, 5° C.)
0.0 mg/mL: Peptide concentration after 24 h (MeCN 0.0% w/w, pH 4.3, RT) | Peptide concentration after 24 h (MeCN 0.0% w/w, pH 5.6, RT)
0.1 mg/mL: Peptide concentration after 5 min (MeCN 0.0% w/w, pH 3.0, RT) | Peptide concentration after 180 min (MeCN 0.0% w/w, pH 3.0, RT) | Peptide concentration after 5 min (MeCN 0.0% w/w, pH 3.6, RT) | Peptide concentration after 180 min (MeCN 0.0% w/w, pH 3.6, RT) | Peptide concentration after 5 min (MeCN 0.0% w/w, pH 4.3, 5° C.) | Peptide concentration after 180 min (MeCN 0.0% w/w, pH 4.3, 5° C.) | Peptide concentration after 5 min (MeCN 0.0% w/w, pH 4.3, RT) | Peptide concentration after 180 min (MeCN 0.0% w/w, pH 4.3, RT) | Peptide concentration after 180 min (MeCN 0.0% w/w, pH 4.9, 5° C.) | Peptide concentration after 5 min (MeCN 0.0% w/w, pH 5.6, 5° C.) | Peptide concentration after 180 min (MeCN 0.0% w/w, pH 5.6, 5° C.) | Peptide concentration after 24 h (MeCN 0.0% w/w, pH 5.6, 5° C.) | Peptide concentration after 5 min (MeCN 0.0% w/w, pH 6.2, 5° C.) | Peptide concentration after 180 min (MeCN 0.0% w/w, pH 6.2, 5° C.) | Peptide concentration after 5 min (MeCN 6.4% w/w, pH 3.0, 5° C.) | Peptide concentration after 24 h (MeCN 6.4% w/w, pH 3.0, RT) | Peptide concentration after 5 min (MeCN 6.4% w/w, pH 3.6, 5° C.)
1.6 mg/mL: Peptide concentration after 180 min (MeCN 0.0% w/w, pH 11.0, 5° C.)
0.5 mg/mL: Peptide concentration after 5 min (MeCN 0.0% w/w, pH 8.0, 5° C.) | Peptide concentration after 5 min (MeCN 0.0% w/w, pH 10.5, 5° C.)
2.0 mg/mL: Peptide concentration after 180 min (MeCN 0.0% w/w, pH 6.9, 5° C.)
0.6 mg/mL: Peptide concentration after 5 min (MeCN 0.0% w/w, pH 7.5, 5° C.)
2.6 mg/mL: Peptide concentration after 180 min (MeCN 0.0% w/w, pH 7.5, 5° C.) | Peptide concentration after 180 min (MeCN 0.0% w/w, pH 9.5, 5° C.)
3.1 mg/mL: Peptide concentration after 180 min (MeCN 0.0% w/w, pH 10.0, 5° C.)
>4.0 mg/mL: Peptide concentration after 24 h (MeCN 0.0% w/w, pH 6.9, 5° C.) | Peptide concentration after 24 h (MeCN 0.0% w/w, pH 6.9, RT) | Peptide concentration after 24 h (MeCN 0.0% w/w, pH 7.5, 5° C.) | Peptide concentration after 24 h (MeCN 0.0% w/w, pH 7.5, RT) | Peptide concentration after 24 h (MeCN 0.0% w/w, pH 8.0, 5° C.) | Peptide concentration after 24 h (MeCN 0.0% w/w, pH 8.5, 5° C.) | Peptide concentration after 24 h (MeCN 0.0% w/w, pH 9.0, 5° C.) | Peptide concentration after 24 h (MeCN 0.0% w/w, pH 9.5, 5° C.) | Peptide concentration after 24 h (MeCN 0.0% w/w, pH 10.0, 5° C.) | Peptide concentration after 24 h (MeCN 0.0% w/w, pH 10.5, 5° C.) | Peptide concentration after 24 h (MeCN 0.0% w/w, pH 11.0, 5° C.)
